Experimental data as given in patent US5656289A, “Pharmaceutical formulations that have a biologically active hydrophilic phase and a chylomicra-containing hydrophobic phase” (priority 1988, dated 1997).
Values joined by “and” are separate entries in the source; they are usually repeats but may differ in a detail not shown here. Equal entries are not always repeated.

What was measured:
[1] = system: diabetics; test: Biological Example B: blood sugar in diabetics and one healthy volunteer after oral Example 1 liquid microemulsion, Regular Insulin or Diabenase; details: for response of case numbers 1 and 8 (in words): 500 mg tablets per os / 20 units s.c.
Experimental: An appropriate amount of the microemulsion is given in a liquid form per os together with 10 ml of MCT (MCT is a trade mark for a medium chained triglyceride solution by Mead-Johnson & Co. Evansville, Ind., U.S.A.). […] Each ml of the insulin-containing formulation contains approximately 5 units of bovine insulin.
Twelve diabetics (9 IDDM and 3 NIDDM) and one healthy volunteer participate in the study. […] Each subject is given one unit of insulin per kg body weight in the form described above per os.

[2] = system: diabetics; test: Biological Example A: blood sugar in diabetics and one healthy volunteer after oral Example 5 capsules or s.c. Regular Insulin; type: in vivo, human
[3] = Biological Example B: serum insulin after oral Example 1 emulsion or s.c. Regular Insulin; type: in vivo, human
From the text: The results are as follows:

[4] = Biological Example A: serum insulin after oral Example 5 capsules or s.c. Regular Insulin (radioimmunoassay); type: in vivo, human
Experimental: A total of 17 diabetics (8 Insulin-Dependent and 9 Non-Insulin-Dependent diabetics) and one healthy volunteer are fasted overnight. […] Each capsule contains approximately 10 U of bovine insulin and each subject is given, orally, a dose equivalent to approximately one unit per kg body weight, with about 250 ml of water. Blood sugar levels are measured on blood samples obtained by pricking the finger-tip using a HAEMOGLUKOTEST set 20-800R and a REFLOLUX apparatus (Boehringer Mannheim GmbH, West Germany). In a few cases, serum insulin levels are measured using a radioimmunoassay method. For the serum insulin analyses, the serum samples are decanted into TRASYLOL-containing test tubes and stored at -20° to -35° C. until analysed. (TRASYLOL is a trade mark of Bayer for aprotinin proteinase inhibitor.)

[5] = in vivo; cited from earlier work
[6] = 15 Units s.c., case 18 IDDM, 0 h (baseline)
[7] = 15 Units s.c., case 18 IDDM, 1.0 h
[8] = 15 Units s.c., case 18 IDDM, 2.0 h
[9] = 15 Units s.c., case 12 IDDM, 0 h (baseline)
[10] = 15 Units s.c., case 12 IDDM, 1 h
[11] = 15 Units s.c., case 12 IDDM, 3 h
[12] = 15 Units s.c., case 12 IDDM, 4 h
[13] = 20 Units s.c., case 11 IDDM, 0.5 h
[14] = 20 Units s.c., case 11 IDDM, 3 h
[15] = 20 Units s.c., case 11 IDDM, 4 h

CCCNC(=O)NS(=O)(=O)c1ccc(Cl)cc1 [Diabenase]
Blood Sugar ([1]; 500 mg per os, case 1 NIDDM, 0 h (baseline)): 186 mg/dL
Blood Sugar ([1]; 500 mg per os, case 8 NIDDM, 1 h): 222 mg/dL
Blood Sugar ([1]; 500 mg per os, case 8 NIDDM, 2 h): 205 mg/dL
Blood Sugar ([1]; 500 mg per os, cases 1 and 8 NIDDM, 3 h): 164 mg/dL and 174 mg/dL
response of case numbers 1 and 8 (in words) [1]: poor responders

Regular Insulin: Regular Insulin (Green Cross Co. of Seoul, Korea), subcutaneously injected
response to subcutaneously injected insulin (in words) ([2]; 5 to 20 units s.c., case nos. 2, 5, 6, 10, 14): respond poorly
Blood Sugar ([2]; 5 units s.c., case 6 NIDDM, 0 h (baseline)): 259 mg/dL
Blood Sugar ([2]; 5 units s.c., case 6 NIDDM, 2 h): 376 mg/dL
Blood Sugar ([2]; 5 units s.c., case 6 NIDDM, 3 h): 298 mg/dL
Blood Sugar (Table 3) [2, 6]: 171 mg/dL
Blood Sugar (Table 3) [2, 7]: 152 mg/dL
Blood Sugar (Table 3) [2, 8]: 122 mg/dL
Blood Sugar (Table 3) ([2]; 15 Units s.c., case 18 IDDM, 3.0 h): 207 mg/dL
Blood Sugar (Table 3) ([2]; 15 Units s.c., case 18 IDDM, […]): 131 mg/dL
Blood Sugar ([2]; 15 units s.c., case 5 IDDM, 0 h (baseline)): 171 mg/dL
Blood Sugar ([2]; 15 units s.c., case 5 IDDM, 1 h): 196 mg/dL
Blood Sugar ([2]; 15 units s.c., case 5 IDDM, 2 h): 161 mg/dL
Blood Sugar ([2]; 15 units s.c., case 5 IDDM, 3 h): 170 mg/dL
Blood Sugar (Table 3) ([2]; 20 Units s.c., case 10 NIDDM, 0 h (baseline)): 157 mg/dL
Blood Sugar (Table 3) ([2]; 20 Units s.c., case 10 NIDDM, 0.5 h): 102 mg/dL
Blood Sugar (Table 3) ([2]; 20 Units s.c., case 10 NIDDM, 3.0 h): 106 mg/dL
Blood Sugar (Table 3) ([2]; 20 Units s.c., case 10 NIDDM, […]): 77 mg/dL
Blood Sugar ([2]; 20 units s.c., poor responders, 0 h (baseline)): 216 mg/dL and 330 mg/dL and 312 mg/dL
Blood Sugar ([2]; 20 units s.c., poor responders, 1 h): 196 mg/dL and 162 mg/dL
Blood Sugar ([2]; 20 units s.c., poor responders, 2 h): 186 mg/dL and 180 mg/dL
Blood Sugar ([2]; 20 units s.c., poor responders, 3 h): 180 mg/dL
response of case numbers 1 and 8 (in words) [1]: poor responders
Blood Sugar (Table 6) [1, 9]: 188 mg/dL
Blood Sugar (Table 6) [1, 10]: 181 mg/dL
Blood Sugar (Table 6) [1, 11]: 160 mg/dL
Blood Sugar (Table 6) [1, 12]: 139 mg/dL
Blood Sugar ([1]; 15 Units, case 1 NIDDM, 0 h (baseline)): 201 mg/dL
Blood Sugar ([1]; 15 Units, case 1 NIDDM, 1 h): 198 mg/dL
Blood Sugar ([1]; 15 Units, case 1 NIDDM, 4 h): 185 mg/dL
Blood Sugar (Table 6) ([1]; 20 Units s.c., case 11 IDDM, 0 h (baseline)): 308 mg/dL
Blood Sugar (Table 6) [1, 13]: 181 mg/dL
Blood Sugar (Table 6) [1, 14]: 87 mg/dL
Blood Sugar (Table 6) [1, 15]: 115 mg/dL
Blood Sugar ([1]; 20 Units, case 8 NIDDM, 3 h): 194 mg/dL
Blood Sugar ([1]; 20 Units, case 8 NIDDM, 4 h): 176 mg/dL
Blood Sugar ([1]; 20 Units, cases 6 and 8, 0 h (baseline)): 151 mg/dL and 218 mg/dL
Blood Sugar ([1]; 20 Units, cases 6 and 8, 2 h): 124 mg/dL and 200 mg/dL
Serum Insulin [3, 9]: 30 micro-Units/ml
Serum Insulin [3, 10]: 47 micro-Units/ml
Serum Insulin [3, 11]: 112 micro-Units/ml
Serum Insulin [3, 12]: 115 micro-Units/ml
Serum Insulin [3, 13]: 159 micro-Units/ml
Serum Insulin [3, 14]: 78 micro-Units/ml
Serum Insulin [3, 15]: 45 micro-Units/ml
Serum Insulin [4, 6]: 10 micro-U/ml
Serum Insulin [4, 7]: 57 micro-U/ml
Serum Insulin [4, 8]: 184 micro-U/ml
Serum Insulin ([4]; 15 Units s.c., case 18 IDDM, 4.0 h): 64 micro-U/ml
Serum Insulin ([4]; 20 Units s.c., case 10 NIDDM, 1.0 h): 19 micro-U/ml
Serum Insulin ([4]; 20 Units s.c., case 10 NIDDM, 2.0 h): 11 micro-U/ml

Sorbitan monolaurate
LD50 [5]: 41 g/kg

Sorbitan monooleate
LD50 [5]: > 40 g/kg

Sorbitan monopalmitate
LD50 [5]: > 16 g/kg

Sorbitan monostearate
LD50 [5]: 31 g/kg

Sorbitan trioleate
LD50 [5]: > 40 g/kg

Sorbitan tristearate
LD50 [5]: > 16 g/kg
